Laboratory results taken from patent publication US20220105051A1, “COMPOUNDS FOR INCREASING MHC-I EXPRESSION AND MODULATING HISTONE DEACETYLASE ACTIVITY” (Cava Healthcare Inc., priority 2019, published 2022).
“Also recorded” adds a separate entry of the source.

What was measured:
MHC-I = MHC-I surface expression by flow cytometry; type: cell-based, murine; conditions: for induction of MHC-I expression at the cell surface: 48 hours after treatment, flow cytometry; for MHC class I upregulation: relative to DMSO
Protocol: (§1) A9 and TC-1 cell lines were trypsinized (0.05%, Gibco), washed twice with PBS (Gibco), and stained with allophycocyanin (APC) conjugated anti-mouse H-2K^b antibody (1:200, Biolegend) suspended in 150 μL of FACS buffer (PBS+2% FBS) for 20 minutes at 4° C. Cells were washed twice with PBS and re-suspended in 200 μL FACs buffer containing 1 μL of 7-aminoactinomycin (7AAD) viability stain (Biolegend). Flow cytometry was performed on the LSRII (BDBiosciences) and analysis was done using FlowJo (Flow cytometry Analysis Software).
(§2) The marine extract library was provided by Dr. Raymond J. Andersen (UBC). The marine invertebrate specimens were collected by SCUBA diving at a 40 metre depth from regions of high marine biodiversity in Papua New Guinea, Indonesia, Thailand, Sri Lanka, Dominica, Brazil, British Columbia, South Africa, and Norway 35. Previously curcuphenol was identified as the active component in one of the marine extracts showing induction of the APM, and since then two new generations of curcuphenol analogues were synthesized in the lab of Dr. Raymond Anderson. To evaluate the ability of these compounds to induce MHC-I surface expression, A9 cells were plated in 6 well plates at 10^5 cells/well and incubated for 24 hours at 37° C. in a 5% CO2 humidified atmosphere. After 24 hours the medium was removed and replaced with medium containing varying concentration of synthesized compounds (6.7 μg/mL, 20 μg/mL, 60 μg/mL). […] Following treatment, cells were incubated for 48 hours at 37° C. with 5% CO2 and humidified atmosphere. After incubation cells were subjected to flow cytometry.
Evaluation of MHC-I surface expression by flow cytometry. LMD:TAP-1 cells or A9 cells were plated in 6 well plates at a concentration of 10,000 cells per well in a 2 mL volume. The next day, cells were treated with the indicated concentrations of the compounds and incubated for 48 hours at 37° C. After incubation, the cells were trypsinized, washed and stained with APC-conjugated anti-mouse MHC-I (specifically anti-H-2K^b) antibody (Biolegend) and assessed by flow cytometry analysis.

HDAC10 = target: T1, HDAC10 (Homo sapiens, UniProt Q969S8); assay: Individualized HDAC assay, HDAC10 (HDAC-Glo); type: biochemical; conditions: purified enzyme; for HDAC10 activity: 5 to 0.02 μM
T1 construct: purchased BPS Biosciences
T1 sequence (Q969S8 1-669): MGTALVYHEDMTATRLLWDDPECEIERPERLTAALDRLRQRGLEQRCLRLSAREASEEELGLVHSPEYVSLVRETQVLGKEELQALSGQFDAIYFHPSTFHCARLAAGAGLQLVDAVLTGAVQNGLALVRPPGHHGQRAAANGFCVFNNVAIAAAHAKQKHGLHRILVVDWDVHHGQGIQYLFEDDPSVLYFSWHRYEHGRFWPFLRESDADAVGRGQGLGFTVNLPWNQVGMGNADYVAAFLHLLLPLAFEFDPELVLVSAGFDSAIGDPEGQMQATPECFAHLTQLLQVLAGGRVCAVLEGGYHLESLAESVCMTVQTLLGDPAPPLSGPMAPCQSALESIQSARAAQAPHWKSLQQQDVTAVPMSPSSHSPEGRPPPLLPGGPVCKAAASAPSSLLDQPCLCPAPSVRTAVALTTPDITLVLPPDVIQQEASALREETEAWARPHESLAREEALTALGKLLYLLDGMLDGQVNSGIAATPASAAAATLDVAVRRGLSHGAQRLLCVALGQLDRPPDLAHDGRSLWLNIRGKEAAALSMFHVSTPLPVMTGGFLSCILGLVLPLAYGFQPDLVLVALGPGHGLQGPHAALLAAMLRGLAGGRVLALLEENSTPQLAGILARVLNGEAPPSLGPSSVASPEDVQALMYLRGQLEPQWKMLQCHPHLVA
Protocol: (§3) The activity of the curcuphenol analogues was assessed with purified HDAC enzymes from all classes I, II, and IV, as well as a select member of HDAC class III (SIRT1). HDACs 1-9 and SIRT1 were evaluated using HDAC Fluorogenic Assay Kits (BPS Biosciences). All assays were completed in black-sided clear-bottom 96 well plates (PerkinElmer), and all treatments were plated in triplicates. Treatment started at 5 μM and was two-fold diluted to a concentration 0.02 μM. The assays were measured using the Synergy HI hybrid reader (BioTek) and Gen5 software (BioTek), excitation was set to 360 nm and detection was measured at 450 nm with a gain of 100. Alternatively HDAC 10 and 11 (BPS Biosciences) were optimized for HDAC concentration using the HDAC-Glo™ I/II Assay and Screening System (Promega). Following optimization each HDAC was run following the Promega protocol in black-sided clear-bottomed 96 well plates in triplicates with same treatments listed above (PerkinElmer). Luminescence was read 30 minutes after HDAC-Glo™I/II reagent was added using the Synergy HI hybrid reader (BioTek) and Gen5 software (Bio-Tek). […] To calculate percent activity, the average of blank wells was subtracted from all treatment groups. The relative mean of activity of the HDAC being measured was determined and all wells that received treatment were divided this average, to give a percentage of activity.
(§4) To evaluate the effect of the compounds on specific HDACs, their activity was assessed with purified HDAC enzymes from all classes I, II, and IV, as well as a select member of HDAC class III (SIRT1). HDACs 1-9 and SIRT1 were evaluated using HDAC Fluorogenic Assay Kits (BPS Biosciences) following the manufacturer's recommendations. Compound treatment started at 5 μM and was two-fold diluted to a concentration 0.02 μM. Alternatively, HDAC 10 and 11 assays (BPS Biosciences) were optimized to be used with the HDAC-Glo™ I/II Assay and Screening System (Promega). The assays were measured using the Synergy HI hybrid reader (BioTek) and Gen5 software (Bio-Tek). […] To calculate the fold change in HDAC activity, the values from each treated well were divided by the relative mean of activity of the specific HDAC being measured.

A9 cell line = assay: Cytotoxicity / live cell frequency in A9 cells (flow cytometry, 7AAD); type: cell-based, murine; conditions: for cytotoxicity: 48 hours after treatment
Protocol: as §1, §2

HDAC5 = target: T2, HDAC5 (Homo sapiens, UniProt Q9UQL6); assay: Individualized HDAC assay, HDAC5; type: biochemical; conditions: purified enzyme, 5 to 0.02 μM
T2 construct: purchased BPS Biosciences
T2 sequence (Q9UQL6 whole entry): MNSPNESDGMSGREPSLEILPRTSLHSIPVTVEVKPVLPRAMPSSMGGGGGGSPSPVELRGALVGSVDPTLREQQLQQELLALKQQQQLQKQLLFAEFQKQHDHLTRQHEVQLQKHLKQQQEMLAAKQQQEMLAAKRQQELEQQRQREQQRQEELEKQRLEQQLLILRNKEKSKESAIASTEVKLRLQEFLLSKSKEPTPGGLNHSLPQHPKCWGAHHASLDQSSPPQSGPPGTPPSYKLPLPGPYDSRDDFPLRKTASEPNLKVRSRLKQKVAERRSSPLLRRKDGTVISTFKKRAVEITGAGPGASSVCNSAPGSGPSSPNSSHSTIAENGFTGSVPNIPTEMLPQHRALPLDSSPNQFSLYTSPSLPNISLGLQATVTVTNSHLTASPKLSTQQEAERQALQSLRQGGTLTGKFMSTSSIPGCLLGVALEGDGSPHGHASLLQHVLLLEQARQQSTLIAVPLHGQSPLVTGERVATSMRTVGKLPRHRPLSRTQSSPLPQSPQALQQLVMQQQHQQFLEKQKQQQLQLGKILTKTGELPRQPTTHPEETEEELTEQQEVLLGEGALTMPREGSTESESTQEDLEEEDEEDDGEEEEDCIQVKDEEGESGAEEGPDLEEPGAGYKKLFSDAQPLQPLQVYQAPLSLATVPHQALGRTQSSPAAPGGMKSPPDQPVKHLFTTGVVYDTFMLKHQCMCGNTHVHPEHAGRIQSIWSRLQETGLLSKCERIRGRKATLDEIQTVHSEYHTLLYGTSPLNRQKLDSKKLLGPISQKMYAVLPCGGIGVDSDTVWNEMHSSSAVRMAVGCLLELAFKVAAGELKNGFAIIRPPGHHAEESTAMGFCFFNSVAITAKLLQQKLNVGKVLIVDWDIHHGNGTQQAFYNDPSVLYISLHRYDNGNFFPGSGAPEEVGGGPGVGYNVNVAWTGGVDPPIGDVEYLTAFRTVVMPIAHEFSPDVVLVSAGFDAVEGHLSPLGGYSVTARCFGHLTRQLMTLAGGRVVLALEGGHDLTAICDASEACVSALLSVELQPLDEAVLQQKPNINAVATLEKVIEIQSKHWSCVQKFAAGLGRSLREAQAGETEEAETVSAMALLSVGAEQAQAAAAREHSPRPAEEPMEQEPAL
Protocol: as §3, §4

Row | SMILES | concentration of optimum MHC upregulation and live cell frequency (MHC-I; A9 cells, 48 hours) | induction of MHC-I expression at the cell surface (MHC-I; A9 cells) | MHC class I upregulation (MHC-I; A9 cells, 48 hours, 0.032, 0.064 and 0.128 μmol) | MHC class I upregulation (MHC-I; A9 cells, 48 hours, 0.055, 0.064 and 0.071 umol) | surface MHC I molecules (MHC-I; cancer cell lines in vitro) | HDAC10 activity (HDAC10) | cytotoxicity (A9 cell line) | live cell frequency (A9 cell line; 48 hours, 0.128 μmol) | HDAC5 activity (HDAC5) | concentration range of HDAC10 enhancement (HDAC10) | HDAC10 activity (HDAC10; listed as PO-3-97-1) | HDAC5 activity (HDAC5; listed as PO-3-97-1)
1 | CC(C)=CCC[C@H](C)c1ccc(C)cc1O [Curcuphenol, curcuphenol] | 0.064 µmol | enhances the expression of MHC-I | upregulated | upregulated | significantly increased | activates | low cellular toxicity | drops substantially | activates | – | – | –
2 | CC(C)=CCCCc1ccc(C)cc1O [P02-113] | – | strong induction of MHC-I; also recorded: greatest consistent induction of MHC-I expression; also recorded: highest expression of MHC-I | – | – | – | enhanced; also recorded: increase in activity levels | low cytotoxicity; also recorded: lowest cytotoxicity | – | enhanced; also recorded: increase in activity levels | enhanced at all concentrations tested | – | –
3 | COc1ccc(C(C)CCC=C(C)C)c(O)c1 (stereo not drawn) [P03-97-1] | – | strong induction of MHC-I; also recorded: greatest consistent induction of MHC-I expression; also recorded: highest expression of MHC-I | – | – | – | enhanced; also recorded: increase in activity levels | low cytotoxicity; also recorded: lowest cytotoxicity | – | enhanced; also recorded: increase in activity levels | enhanced at all concentrations tested | enhanced | enhanced
